Experimental data taken from US6737383B1, “Herbicidal oxadiazolidines” (priority 1999, dated 2004).

What was measured:
[1] = test system: rape; assay: Test B pre/postemergence rape; assay type: in vivo, Brassica napus; conditions: for Plant response rating, Rape: scale of 0 to 10 where 0 is no effect and 10 is complete control
Summary of the method: (§1)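 Response is a visual 0-to-10 score relative to untreated plants, where 0 means no effect and 10 means complete control, taken twelve to sixteen days after application. Treatments went onto soil at planting and onto foliage of 1- to 4-leaf plants, using a surfactant-containing non-phytotoxic solvent.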

[2] = test system: velvetleaf; assay: Test B pre/postemergence velvetleaf; assay type: in vivo, Abutilon theophrasti; conditions: for Plant response rating, Velvetleaf: scale of 0 to 10 where 0 is no effect and 10 is complete control
Summary of the method: as §1

[3] = test system: corn; assay: Test B pre/postemergence corn; assay type: in vivo, Zea mays
Summary of the method: as §1

[4] = test system: cocklebur; assay: Test B pre/postemergence cocklebur; assay type: in vivo, Xanthium strumarium
Summary of the method: as §1

[5] = test system: bedstraw; assay: Test B pre/postemergence bedstraw; assay type: in vivo, Galium aparine
Summary of the method: as §1

[6] = test system: surinam grass; assay: Test B pre/postemergence surinam grass; assay type: in vivo, Brachiaria decumbens
Summary of the method: as §1

[7] = test system: pigweed; assay: Test B pre/postemergence pigweed; assay type: in vivo, Amaranthus retroflexus; conditions: for Plant response rating, Redroot pigweed: scale of 0 to 10 where 0 is no effect and 10 is complete control
Summary of the method: as §1

[8] = test system: blackgrass; assay: Test B pre/postemergence blackgrass; assay type: in vivo, Alopecurus myosuroides
Summary of the method: as §1

[9] = test system: sugar beet; assay: Test B pre/postemergence sugar beet; assay type: in vivo, Beta vulgaris; conditions: for Plant response rating, Sugarbeets: scale of 0 to 10 where 0 is no effect and 10 is complete control
Summary of the method: as §1

[10] = test system: smallflower flatsedge; assay: Test B flood test smallflower flatsedge; assay type: in vivo, Cyperus difformis
Summary of the method: (§2)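 Each value is a visual injury score relative to controls, with 10 meaning complete control and 0 no effect. Evaluation took place twelve to sixteen days after the 2-leaf-stage plants were treated and kept in the greenhouse.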

[11] = test system: rice; assay: Test B flood test rice; assay type: in vivo, Oryza sativa
Summary of the method: as §2

[12] = test system: wild oat; assay: Test B pre/postemergence wild oat; assay type: in vivo, Avena fatua; conditions: for Plant response rating, Wild oats: scale of 0 to 10 where 0 is no effect and 10 is complete control
Summary of the method: as §1

[13] = test system: giant foxtail; assay: Test B pre/postemergence giant foxtail; assay type: in vivo, Setaria faberii
Summary of the method: as §1

[14] = test system: wheat; assay: Test B pre/postemergence wheat; assay type: in vivo, Triticum aestivum; conditions: for Plant response rating, Wheat: scale of 0 to 10 where 0 is no effect and 10 is complete control
Summary of the method: as §1

[15] = test system: morningglory; assay: Test B pre/postemergence morningglory; assay type: in vivo, Ipomoea hederacea; conditions: for Plant response rating, Morningglory: scale of 0 to 10 where 0 is no effect and 10 is complete control
Summary of the method: as §1

[16] = test system: soybean; assay: Test B pre/postemergence soybean; assay type: in vivo, Glycine max; conditions: for Plant response rating, Soybean: scale of 0 to 10 where 0 is no effect and 10 is complete control
Summary of the method: as §1

[17] = Postemergence, Rate 250 g/ha, scale 0 to 10
[18] = Preemergence, Rate 250 g/ha, scale 0 to 10, 0 is no effect, 10 is complete control
[19] = Preemergence, Rate 500 g/ha, scale 0 to 10, 0 is no effect, 10 is complete control
[20] = Rate 62 g/ha, Postemergence, scale 0 to 10 (0 no effect, 10 complete control)
[21] = Rate 125 g/ha, Postemergence, scale 0 to 10, 0 is no effect, 10 is complete control
[22] = Postemergence, Rate 500 g/ha, scale of 0 to 10 where 0 is no effect and 10 is complete control
[23] = Preemergence, Rate 62 g/ha, scale of 0 to 10 where 0 is no effect and 10 is complete control
[24] = Preemergence, Rate 125 g/ha, scale of 0 to 10 where 0 is no effect and 10 is complete control
[25] = Rate 62 g/ha, flood test species, Pre-emergence, visual evaluation after twelve to sixteen days
[26] = Rate 125 g/ha, under heading Pre-emergence, flood test species, visual evaluation after twelve to sixteen days
[27] = Rate 250 g/ha, Pre-emergence (flood test species), scale 0 to 10, 0 is no effect, 10 is complete control
[28] = Rate 500 g/ha, Pre-emergence, flood test species, scale 0 to 10 (0 no effect, 10 complete control)

CC(C)N(C(=O)n1oc(=O)n(CCCl)c1=O)c1ccc(Cl)cc1 [Compound 474]
4: Rape plant response rating [1, 19] | Corn plant response rating [3, 19] | Cocklebur plant response rating [4, 22] | B. signalgrass plant response rating [6, 22] | Blackgrass plant response rating [8, 18] | Wild oats plant response rating [12, 18] | Soybean plant response rating [16, 17] | Soybean plant response rating [16, 21]
10: Plant response rating, Giant foxtail [13, 24] | Giant foxtail plant response rating [13, 18] | Giant foxtail plant response rating [13, 19]
8: Bedstraw plant response rating [5, 17] | Bedstraw plant response rating [5, 22] | Blackgrass plant response rating [8, 17] | Blackgrass plant response rating [8, 22] | Wild oats plant response rating [12, 19] | Giant foxtail plant response rating [13, 22]
5: Redroot pigweed plant response rating [7, 18]
1: B. signalgrass plant response rating ([6]; Postemergence, Rate 250 g/ha, scale 0 to 10, 0 no effect, 10 complete control) | B. signalgrass plant response rating [6, 21] | Plant response rating, Redroot pigweed ([7]; Preemergence, Rate 62 g/ha) | Redroot pigweed plant response rating [7, 21] | Morningglory plant response rating [15, 17] | Morningglory plant response rating [15, 20] | Morningglory plant response rating [15, 21]
9: Blackgrass plant response rating [8, 19]
6: Bedstraw plant response rating [5, 20] | Bedstraw plant response rating [5, 21] | Giant foxtail plant response rating [13, 21]
0: Rape plant response rating [1, 17] | Plant response rating, Rape ([1]; Preemergence, Rate 62 g/ha) | Plant response rating, Rape ([1]; Preemergence, Rate 125 g/ha) | Rape plant response rating [1, 20] | Rape plant response rating [1, 21] | Velvetleaf plant response rating [2, 17] | Plant response rating, Velvetleaf ([2]; Preemergence, Rate 62 g/ha) | Plant response rating, Velvetleaf ([2]; Preemergence, Rate 125 g/ha) | Velvetleaf plant response rating [2, 18] | Velvetleaf plant response rating [2, 19] | Velvetleaf plant response rating [2, 20] | Velvetleaf plant response rating [2, 21] | Corn plant response rating [3, 17] | Corn plant response rating [3, 22] | Plant response rating, Corn [3, 23] | Plant response rating, Corn [3, 24] | Corn plant response rating [3, 18] | Corn plant response rating [3, 20] | Corn plant response rating [3, 21] | Cocklebur plant response rating [4, 17] | Plant response rating, Cocklebur [4, 23] | Plant response rating, Cocklebur [4, 24] | Cocklebur plant response rating [4, 18] | Cocklebur plant response rating [4, 19] | Cocklebur plant response rating [4, 20] | Cocklebur plant response rating [4, 21] | Plant response rating, Bedstraw [5, 23] | Bedstraw plant response rating [5, 19] | Plant response rating, B. signalgrass [6, 23] | B. signalgrass plant response rating [6, 20] | Redroot pigweed plant response rating [7, 20] | Sugarbeets plant response rating [9, 17] | Plant response rating, Sugarbeets ([9]; Preemergence, Rate 62 g/ha) | Plant response rating, Sugarbeets ([9]; Preemergence, Rate 125 g/ha) | Sugarbeets plant response rating [9, 18] | Sugarbeets plant response rating [9, 20] | Sugarbeets plant response rating [9, 21] | Plant response rating, S. Flatsedge (0 to 10 scale, 0 is no effect, 10 is complete control) [10, 25] | S. Flatsedge plant response rating (0 to 10 scale, 0 is no effect, 10 is complete control) [10, 26] | S. Flatsedge plant response rating [10, 27] | S. Flatsedge plant response rating [10, 28] | Plant response rating, Rice (0 to 10 scale, 0 is no effect, 10 is complete control) [11, 25] | Rice plant response rating (0 to 10 scale, 0 is no effect, 10 is complete control) [11, 26] | Rice plant response rating [11, 27] | Rice plant response rating [11, 28] | Wild oats plant response rating [12, 17] | Plant response rating, Wild oats ([12]; Preemergence, Rate 62 g/ha) | Wild oats plant response rating [12, 20] | Wild oats plant response rating [12, 21] | Wheat plant response rating [14, 17] | Plant response rating, Wheat ([14]; Preemergence, Rate 62 g/ha) | Plant response rating, Wheat ([14]; Preemergence, Rate 125 g/ha) | Wheat plant response rating [14, 18] | Wheat plant response rating [14, 19] | Wheat plant response rating [14, 20] | Wheat plant response rating [14, 21] | Plant response rating, Morningglory ([15]; Preemergence, Rate 62 g/ha) | Plant response rating, Morningglory ([15]; Preemergence, Rate 125 g/ha) | Morningglory plant response rating [15, 18] | Morningglory plant response rating [15, 19] | Plant response rating, Soybean ([16]; Preemergence, Rate 62 g/ha) | Plant response rating, Soybean ([16]; Preemergence, Rate 125 g/ha) | Soybean plant response rating [16, 18] | Soybean plant response rating [16, 19]
3: Plant response rating, Redroot pigweed ([7]; Preemergence, Rate 125 g/ha) | Plant response rating, Blackgrass [8, 23] | Plant response rating, Blackgrass [8, 24] | Sugarbeets plant response rating [9, 19] | Plant response rating, Wild oats ([12]; Preemergence, Rate 125 g/ha) | Giant foxtail plant response rating [13, 20] | Soybean plant response rating [16, 20]
7: B. signalgrass plant response rating [6, 18] | B. signalgrass plant response rating [6, 19] | Redroot pigweed plant response rating [7, 19] | Blackgrass plant response rating [8, 20] | Giant foxtail plant response rating [13, 17] | Plant response rating, Giant foxtail [13, 23]
2: Rape plant response rating [1, 18] | Plant response rating, B. signalgrass [6, 24] | Redroot pigweed plant response rating [7, 17]
